Measured values as given in PubChem BioAssay AID1993 (NMMLSC, 2009).
The source made the active and inactive calls.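 Rule for the calls: active = fluorescence area over time at least a quarter above or below the solvent control area (some results past the limit were not filed as active); inactive = the rest.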

What follows are molecules tested on U937 FPR-DeltaST, VLA-4 LDV-FITC binding, flow cytometry (assay: fMLF receptor-driven LDV-FITC binding on U937 cells – cell-based, U937 FPR-DeltaST, flow cytometry, RGS protein inhibitor project (AID 1993)). Conditions: at 10 µM; hits give high values.

SMILES	AUC
Cc1cc(C)c2c(=O)n(CC(=O)Nc3cccc(F)c3)sc2n1	25000 (inactive)
Cc1cccc(N2CCN(C(=O)Cn3sc4nc(C)cc(C)c4c3=O)CC2C)c1 (configuration not stated)	25500
NS(=O)(=O)c1ccc(N/N=C/c2ccc(O)c(O)c2O)c([N+](=O)[O-])c1	20500 (inactive)
O=C(NCCCN1CCOCC1)c1sc2cc([N+](=O)[O-])ccc2c1Cl	27100
O=c1c2ccccc2sn1-c1cc(S(=O)(=O)N2CCOCC2)ccc1N1CCCC1	19600 (inactive)
O=c1c2ccccc2sn1-c1ccccc1	18300 (inactive)
CCN(CC)S(=O)(=O)c1cccc(C(=O)N/N=C/c2ccc(O)c(O)c2O)c1	26500
Cc1[nH]n(-c2ccccc2)c(=S)c1C=Nc1cccc([N+](=O)[O-])c1	26500
COc1ccc(OC)c(CCNC(=O)Cn2sc3nc(C)cc(C)c3c2=O)c1	26600
O=C1C(Cl)=C(N2CCCCC2)C(=O)C(Cl)=C1c1cnc(N2CCCCC2)s1	2540 (inactive)
CCOC(=O)C1CCCN(C(=O)Cn2sc3nc(C)cc(C)c3c2=O)C1 (configuration not stated)	27900
Cc1ccc(NC(=O)Cn2sc3nc(C)cc(C)c3c2=O)c(Cl)c1	23500 (inactive)
CCC(=O)NC1=C(Cl)C(=O)C(NC(=O)CC)=C(Cl)C1=O	11600 (inactive)
Cc1cc(C)c2c(=O)n(CC(=O)Nc3ccc(Cl)cc3)sc2n1	22800 (inactive)
O=c1c2ccccc2sn1-c1ccc(S(=O)(=O)N2CCCC2)cc1	19400 (inactive)
Nc1c(C(=O)NCC2CCCO2)sc2nc3c(c(-c4ccco4)c12)CC/C3=C\c1ccco1 (configuration not stated)	455 (inactive)
CC(NC(=O)c1sc2cc([N+](=O)[O-])ccc2c1Cl)C(C)(C)C (configuration not stated)	29100
